From publication PMC11351550, “Synthesis, Cytotoxicity and Antioxidant Activity Evaluation of Some Thiazolyl–Catechol Compounds” (Antioxidants, 2024)
Structures can show the parent of a compound that is named as a salt. Where two headings read alike, the source gives them in different places.

Columns and labels:
[1] = system: human pulmonary malignant cells (A549); test: Alamar Blue cytotoxicity assay, A549 cells; type: cell-based; conditions: for IC50: 48 h exposure, Alamar Blue, read-out: IC50 (±SD) A549; for Selectivity Index: ratio between the calculated IC50 on BJ and A549 cells, 48 h
Protocol: (§1) BJ cells were maintained in Dulbecco’s modified Eagle’s medium (DMEM) with low glucose (1 g/L), while the A549 cells were seeded in DMEM with high glucose (5 g/L). All media were supplemented with 10% fetal bovine serum (FBS) and 1% Penicillin/Streptomycin. […] Cellular media were refreshed every other day. Cells were either subcultured or used in experiments once they reached a confluency of 80–90%.
(§2) The cytotoxicity of the synthesized compounds was evaluated by Alamar Blue (AB) assays performed on both cell lines, A549 and BJ, after a 48 h exposure, as previously reported.
(§3) Briefly, approximately 7000 A549 cells and 4000 normal BJ cells were seeded in 100 µL cellular media in 96-well plates to achieve a confluency of 70–80% at the end of the experiment and left to attach overnight before exposure. […] Post-exposure, the media were removed, and the AB assay was performed, with cells being incubated with a 200 µM solution of resazurin for 4 h. The obtained fluorescence was measured at λexcitation = 530/25; λemission = 590/35.
(§4) The experiments included three biological replicates, each one including three technical replicates. The negative control (NC) consisted of cells exposed to a cell culture medium containing 0.2% DMSO and was used for data normalization (100%).

[2] = Reducing power (RP) assay; type: biochemical; conditions: 50 °C, 20 min, pH 6.6
Protocol: (§5) The stock solutions of the reference antioxidants (ascorbic acid, Trolox, EDTA-Na2) and compounds 3a–j were prepared by dissolving the solid powders in DMSO, obtaining 2 mM stock solutions. Following this, an additional set of solutions (0.2 mM) for each compound was obtained by dilution with DMSO. Absorption spectra of the tested compounds covering the range from 400 nm to 800 nm were recorded, indicating no absorption peaks near the wavelengths employed in the experiments. All measurements in the presented assays were made against blank samples. To quantify the activity of the compounds 3a–j, for the antiradical assays (DPPH and ABTS) and ferrous ion chelation, IC50 was calculated using Equation (1), while for the electron transfer assays (TAC, RP, FRAP and CUPRAC), the reference number of mole equivalent activity for each compound was calculated using Equation (2). (1) radical scavenging (%)=control absorbance−sample absorbance/control absorbance×100 (2) equivalents of control=sample absorbance/control absorbance
In the reducing power (RP) assay, the tested compounds performed the reduction of ferric ions from potassium ferricyanide, forming ferrocyanide, which gives a blue complex. The protocol followed is an adaptation of previously reported methodologies. In glass test tubes, 1000 µL of solutions containing compounds and standards measured from the 0.2 mM stock solutions were mixed with 400 µL of phosphate buffer (0.2 M, pH = 6.6) and 400 µL of K3[Fe(CN)6] solution (1% w/v). The tubes were sealed and incubated for 20 min in a water bath at 50 °C. After cooling to room temperature, 500 µL of trichloroacetic acid (10% w/w) was added to all test tubes The resulting mixtures were left for 0.5 h at room temperature. Subsequently, 250 µL of the resulting solutions were mixed with 140 µL of FeCl3 solution (0.1% w/v) and 1000 µL of distilled water, and the absorbance of the resulting solutions was determined at λ = 695 nm.

[3] = Ferric-Reducing Antioxidant Potential (FRAP) assay; type: biochemical; conditions: pH 3.6, 593 nm
Protocol: as §5
The Ferric-Reducing Antioxidant Potential (FRAP) assay relies on the transfer of an electron from the antioxidant being assessed to Fe^3+, resulting in its conversion to Fe^2+. The resulting Fe^2+ ions are then chelated by 2,4,6-tripyridyl-s-triazine, giving a blue-colored complex, with an absorption maximum at λ = 593 nm. A 500 µL amount of the solutions (0.2 mM) of compounds and reference compounds was mixed with 600 µL FRAP reagent and 1200 µL acetate buffer (0.3 M, pH = 3.6), according to previous reports. The resulting solutions were mixed well in the dark, and their absorbance was measured spectrophotometrically.

[4] = CUPRAC (CUPric-Reducing Antioxidant Capacity) assay; type: biochemical; conditions: 30 min, 450 nm
Protocol: as §5
The electron-donating capacity of compounds was assessed using the CUPRAC (CUPric-Reducing Antioxidant Capacity) method. The protocol for this assay is a modification of the reports of Alam et al., Özyürek et al., and Apak et al.. Volumes of 250 µL of CuCl2 10 mM, 1 mL of ammonium acetate buffer 1 M, and 250 µL of 7.5 mM neocuproine in ethanol were mixed with 125 µL of samples and reference compound solutions (0.2 mM). The mixtures were shaken for 30 min in the dark; after that, their absorbance was determined spectrophotometrically at λ = 450 nm.

[5] = system: normal human foreskin fibroblasts (BJ); test: Alamar Blue cytotoxicity assay, BJ cells; type: cell-based; conditions: 48 h exposure, Alamar Blue
Protocol: as §1, §2, §3, §4

[6] = Ferrous ion chelation assay (ferrozine); type: biochemical; set-up: key: - represents negligible activity
Protocol: as §5
To evaluate the ability of compounds to chelate ferrous ions, an assay was performed using an adaptation of Dinis et al.’s initial report. The solutions of the tested compounds (2 mM) were mixed well with 500 µL of FeSO4 (0.125 mM), and 500 µL of ferrozine 0.315 mM. After 10 min, the absorbance of the samples was determined spectrophotometrically at λ = 562 nm. EDTA-Na2 was used as a positive control, due to its exceptional ion chelation properties.

[7] = Total Antioxidant Capacity (TAC) assay; type: biochemical; conditions: 95 °C, 1.5 h, 695 nm
Protocol: as §5
The Total Antioxidant Capacity (TAC) assay was conducted following the methodology outlined in our previous publication, which was based on initial reports from the literature. A volume of 10 mL of the reagent (0.6 M H2SO4, 28 mM Na3PO4 and 4 mM (NH4)6Mo7O24) and 1000 µL of the compound and standard solutions dispensed from the 2 mM stock solutions were mixed in sealed glass test tubes and incubated in a water bath at 95 °C for 1.5 h. After cooling the test tubes to room temperature, 1000 µL of each solution was diluted with 1000 µL of water. The absorbance of the solutions was then measured at λ = 695 nm.

[8] = DPPH radical-scavenging assay; type: biochemical; conditions: 30 min in the dark, 517 nm; read-out: IC50 against DPPH•
Protocol: as §5
The DPPH˙ (2,2-diphenyl-1-picrylhydrazyl) radical-scavenging assay, initially reported by Brand-Williams et al., relies on transferring a hydrogen atom from the antioxidant substrate being analyzed to the stable violet radical of DPPH˙. This action converts DPPH˙ into a nonradical stable yellow compound. The reduction in absorbance of the DPPH˙ at λ = 517 nm corresponds to the quantity of neutralized reagent. To perform the DPPH assay, we took 50, 75, 100, 125, and 150 µL of each sample from their 0.2 mM stock solutions, then we adjusted the volumes with DMSO to ensure all samples reached a uniform final volume. These solutions were mixed with 1 mL of DPPH reagent and incubated in the dark for 30 min, as presented in literature reports.

[9] = ABTS radical cation decolorization assay; type: biochemical; conditions: 10 min, pH 7.4, 734 nm; read-out: IC50 against ABTS•+
Protocol: as §5
The decolorization assay of the green ABTS^•+ (2,2′-azinobis-(3-ethylbenzothiazoline-6-sulfonic acid) to ABTS, based on the report of Re et al., was conducted following our group’s published report. The chemical stability of the ABTS^•+ reagent prior to use was checked at λ = 734 nm over one hour, ensuring a consistent absorption (approximately equal to 0.7). The reagent was prepared in potassium phosphate buffer (0.1 M, pH = 7.4) and activated overnight using MnO2 [17]. In all cuvettes, we added 100 μL of the tested compound solutions (0.2 mM) in increasing concentrations up to 200 µL and 2000 µL of the ABTS^•+ reagent. The resulting mixtures were thoroughly shaken for 10 min at room temperature, in the absence of light. The optical absorbance of the resulting mixtures was then measured by spectrophotometry at λ = 734 nm.

| SMILES | melting point [°C] | IC50 [8] [µM] | IC50 [9] [µM] | IC50 [1] [µM] | Selectivity Index [1] | RP Eq Ascorbic Acid [2] [Eq Ascorbic Acid] | RP Eq Trolox [2] [Eq Trolox] | FRAP Eq Trolox [3] [Eq Trolox] | CUPRAC Eq Trolox [4] [Eq Trolox] | IC50 [5] [µM] | ferrous ion chelation percent ([6]; 0.25 µM) | ferrous ion chelation percent ([6]; 0.5 µM) | ferrous ion chelation percent ([6]; 1 µM) | ferrous ion chelation percent ([6]; 1.5 µM) | ferrous ion chelation percent ([6]; 2 µM) | TAC Eq Ascorbic Acid [7] [Eq Ascorbic Acid] | IC50 ([1]; Homo sapiens, A549) [µM] | IC50 ([5]; Homo sapiens, Fibroblast) [µM] |
| --- | --- | --- | --- | --- | --- | --- | --- | --- | --- | --- | --- | --- | --- | --- | --- | --- | --- | --- |
| COc1cc(-c2nc(-c3ccc(O)c(O)c3)cs2)cc(OC)c1OC (as salt: hydrochloride) [Compound 3f, 4-(2-(3,4,5-trimethoxyphenyl)thiazol-4-yl)benzene-1,2-diol] | 219 |  |  |  |  |  |  |  |  |  |  |  |  |  |  |  |  |  |
| Oc1ccc(-c2csc(-c3ccccc3)n2)cc1O [Compound 3b] |  | 50.2 | 14 | 8.91 | 8.82 | 1.60 | 1.33 | 1.07 | 2.27 | 78.6 | - | - | - | - | - | 1.00 |  |  |
| Oc1ccc(-c2csc(-c3ccc(Br)cc3)n2)cc1O [Compound 3d, 4-(2-(4-bromophenyl)thiazol-4-yl)benzene-1,2-diol] |  | 48.3 | 12.6 |  | 5.66 | 1.63 | 1.35 | 1.09 | 2.62 |  | - | - | - | - | - | 0.71 | 6.08 | 34.4 |
| Cc1cccc(-c2nc(-c3ccc(O)c(O)c3)cs2)c1 (as salt: hydrochloride) [Compound 3e, 4-(2-(m-tolyl)thiazol-4-yl)benzene-1,2-diol] | 196 |  |  |  |  |  |  |  |  |  |  |  |  |  |  |  |  |  |

Continued, in another order:

| melting point [°C] | IC50 [8] [µM] | IC50 [9] [µM] | SMILES | IC50 [1] [µM] | Selectivity Index [1] | RP Eq Ascorbic Acid [2] [Eq Ascorbic Acid] | RP Eq Trolox [2] [Eq Trolox] | FRAP Eq Trolox [3] [Eq Trolox] | CUPRAC Eq Trolox [4] [Eq Trolox] | IC50 [5] [µM] | ferrous ion chelation percent ([6]; 0.25 µM) | ferrous ion chelation percent ([6]; 0.5 µM) | ferrous ion chelation percent ([6]; 1 µM) | ferrous ion chelation percent ([6]; 1.5 µM) | ferrous ion chelation percent ([6]; 2 µM) | TAC Eq Ascorbic Acid [7] [Eq Ascorbic Acid] | IC50 ([1]; Homo sapiens, A549) [µM] | IC50 ([5]; Homo sapiens, Fibroblast) [µM] |
| --- | --- | --- | --- | --- | --- | --- | --- | --- | --- | --- | --- | --- | --- | --- | --- | --- | --- | --- |
| 258 |  |  | Oc1ccc(-c2csc(-c3csc(-c4ccccc4)n3)n2)cc1O (as salt: hydrochloride) [Compound 3i, 4-(2′-phenyl-[2,4′-bithiazol]-4-yl)benzene-1,2-diol] |  |  |  |  |  |  |  |  |  |  |  |  |  |  |  |
| 240 |  |  | Oc1ccc(-c2csc(-c3ccncc3)n2)cc1O (as salt: hydrochloride) [Compound 3g, 4-(2-(pyridin-4-yl)thiazol-4-yl)benzene-1,2-diol] |  |  |  |  |  |  |  |  |  |  |  |  |  |  |  |
|  | 54.6 | 13.4 | COc1cc(-c2nc(-c3ccc(O)c(O)c3)cs2)cc(OC)c1OC [Compound 3f, 4-(2-(3,4,5-trimethoxyphenyl)thiazol-4-yl)benzene-1,2-diol] |  | 9.43 | 1.75 | 1.46 | 1.06 | 3.05 |  | - | - | - | - | - | 1.22 | 8.76 | 82.6 |
| 230 |  |  | Oc1ccc(-c2csc(-c3ccccn3)n2)cc1O (as salt: hydrochloride) [Compound 3h, 4-(2-(pyridin-2-yl)thiazol-4-yl)benzene-1,2-diol] |  |  |  |  |  |  |  |  |  |  |  |  |  |  |  |
|  | 49.6 | 17.7 | Cc1ccc(-c2nc(-c3nc(-c4ccc(O)c(O)c4)cs3)cs2)cc1 [Compound 3j, 4-(2′-(p-tolyl)-[2,4′-bithiazol]-4-yl)benzene-1,2-diol] |  | 5.67 | 1.81 | 1.50 | 1.06 | 1.61 |  | - | - | - | - | - | 0.36 | 4.28 | 24.2 |
| 265 |  |  | Cc1ccc(-c2nc(-c3nc(-c4ccc(O)c(O)c4)cs3)cs2)cc1 (as salt: hydrochloride) [Compound 3j, 4-(2′-(p-tolyl)-[2,4′-bithiazol]-4-yl)benzene-1,2-diol] |  |  |  |  |  |  |  |  |  |  |  |  |  |  |  |
